Laboratory results published in patent publication EP4722201A1, “3-PHENYLISOXAZOLINE-5-CARBOXAMIDE COMPOUND, AND PREPARATION METHOD THEREFOR, HERBICIDAL COMPOSITION THEREOF AND USE THEREOF” (Jiangsu Flag Chemical Industry Co., Ltd, priority 2023, dated 2024).

Assays:
Assay type in all cases: in vivo
Cyperus iria = test: Indoor herbicide activity determination, post-emergence (stem and leaf spray at 2-4 leaf stage); conditions: 504 h, 60 g a.i./ha, determined 21 days later, read-out: Inhibition rate of fresh weight, Cyperus iria
Source text: (§1) The testing method for herbicide activity of the compound of the present invention was as follows:
(§2) Post-emergence: an appropriate quantity of seeds of gramineous weeds (Echinochloa crusgalli, Eleusine indica, Digitaria sanguinalis, Alopecurus japonicus, Beckmannia syzigachne, Leptochloa chinensis, Polypogon fugax, Alopecurus aequalis, Lolium multiflorum, Poa annua, Aegilops tauschii, Avena fatua, Alopecurus myosuroides, Alopecurus japonicus and Alopecurus aequalis), broad-leaved weeds (Eclipta prostrata, Amaranthus retroflexus, Rorippa indica, Malachium aquaticum, Veronica polita, Conyza canadensis, Sesbania cannabina, Sagittariatrifolia and Schoenoplectiella juncoides), and Cyperus iria were sown in plastic pots having a diameter of 7 cm and holes at the bottom and filled with nutrient soil (sandy soil, pH 6.1, organic matter 1%) respectively, the seeds were covered with an appropriate amount of soil after being sown, then the soil was wetted with water from the bottom, the seeds were cultured in a constant-temperature illuminated culture room until a 2-4 leaf stage, and stems and leaves underwent spray treatment. After the treatment, the test materials were placed in a laboratory and cultured in the constant-temperature illuminated culture room after the liquid was naturally dry in the shade, and results were determined 21 days later. Inhibition rate of fresh weight % = (1−(fresh weight of treated plants)/(fresh weight of control plants)) × 100% [formula]

Digitaria sanguinalis = test: as above; conditions: 504 h, 60 g a.i./ha, determined 21 days later, read-out: Inhibition rate of fresh weight, Digitaria sanguinalis
Source text: as §1, §2

Eclipta prostrata = test: as above; conditions: 504 h, 60 g a.i./ha, determined 21 days later, read-out: Inhibition rate of fresh weight, Eclipta prostrata
Source text: as §1, §2

Leptochloa chinensis = test: Indoor herbicide activity determination, Seed Treatment; pre-emergence (soil spray); conditions: Dosage 240 g a.i./ha
Outline: (§3)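 Weed seeds sown in 7 cm pots of sandy nutrient soil (pH 6.1, 1% organic matter), kept 24 h in a constant-temperature lit room, then soil sprayed by traveling spray tower (flow 390 mL/min). Fresh-weight inhibition % versus untreated controls scored 21 days later.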

Lolium multiflorum = test: as above; conditions: Dosage 240 g a.i./ha
Outline: as §3

Alopecurus japonicus = test: as above; conditions: Dosage 240 g a.i./ha
Outline: as §3

Alopecurus myosuroides = test: as above; conditions: Dosage 240 g a.i./ha
Outline: as §3

Eleusine indica = test: as above; conditions: Dosage 240 g a.i./ha
Outline: as §3

Structure (SMILES) | inhibition at 60 g/ha (Cyperus iria) [%] | inhibition at 60 g/ha (Digitaria sanguinalis) [%] | inhibition at 60 g/ha (Eclipta prostrata) [%] | Herbicidal activities, Leptochloa chinensis (inhibition rate class) (Leptochloa chinensis) | Herbicidal activities, Lolium multiflorum (inhibition rate class) (Lolium multiflorum) | Herbicidal activities, Alopecurus japonicus (inhibition rate class) (Alopecurus japonicus) | Herbicidal activities, Alopecurus myosuroides (inhibition rate class) (Alopecurus myosuroides) | Herbicidal activities, Eleusine indica (inhibition rate class) (Eleusine indica)
C=CC1(C(=O)N[C@H]2C[C@@H](C(=O)OC)C2)CC(c2cc(F)cc(C(F)(F)F)c2)=NO1 (mixture of isomers) [I-51] | 80 to 100 | 60 to 80 | 60 to 80 | A (A indicates that the inhibition rate was greater than or equal to 80% to 100%) | A (A indicates that the inhibition rate was greater than or equal to 80% to 100%) | A (A indicates that the inhibition rate was greater than or equal to 80% to 100%) | A (A indicates that the inhibition rate was greater than or equal to 80% to 100%) | A (A indicates that the inhibition rate was greater than or equal to 80% to 100%)
C=CC1(C(=O)N[C@H]2C[C@@H](C(=O)O)C2)CC(c2cc(F)cc(OC(F)(F)F)c2)=NO1 (mixture of isomers) [I-57] | 80 to 100 | 80 to 100 | 60 to 80 | A (A indicates that the inhibition rate was greater than or equal to 80% to 100%) | A (A indicates that the inhibition rate was greater than or equal to 80% to 100%) | A (A indicates that the inhibition rate was greater than or equal to 80% to 100%) | A (A indicates that the inhibition rate was greater than or equal to 80% to 100%) | A (A indicates that the inhibition rate was greater than or equal to 80% to 100%)
C=CC1(C(=O)N[C@H]2C[C@@H](C(=O)OC)C2)CC(c2cc(F)cc(OC(F)(F)F)c2)=NO1 (mixture of isomers) [I-59] | 80 to 100 | 80 to 100 | 60 to 80 | A (A indicates that the inhibition rate was greater than or equal to 80% to 100%) | A (A indicates that the inhibition rate was greater than or equal to 80% to 100%) | A (A indicates that the inhibition rate was greater than or equal to 80% to 100%) | A (A indicates that the inhibition rate was greater than or equal to 80% to 100%) | A (A indicates that the inhibition rate was greater than or equal to 80% to 100%)
CC1(C(=O)N[C@H]2C[C@@H](C(=O)O)C2)CC(c2cc(F)cc(F)c2)=NO1 (mixture of isomers) [I-111] | 80 to 100 | 80 to 100 | 60 to 80 | A (A indicates that the inhibition rate was greater than or equal to 80% to 100%) | A (A indicates that the inhibition rate was greater than or equal to 80% to 100%) | A (A indicates that the inhibition rate was greater than or equal to 80% to 100%) | A (A indicates that the inhibition rate was greater than or equal to 80% to 100%) | A (A indicates that the inhibition rate was greater than or equal to 80% to 100%)
COC(=O)[C@H]1C[C@@H](NC(=O)C2(C)CC(c3cc(F)cc(F)c3)=NO2)C1 (mixture of isomers) [I-113] | 80 to 100 | 80 to 100 | 60 to 80 | A (A indicates that the inhibition rate was greater than or equal to 80% to 100%) | A (A indicates that the inhibition rate was greater than or equal to 80% to 100%) | A (A indicates that the inhibition rate was greater than or equal to 80% to 100%) | A (A indicates that the inhibition rate was greater than or equal to 80% to 100%) | A (A indicates that the inhibition rate was greater than or equal to 80% to 100%)
CC1(C(=O)N[C@H]2C[C@@H](C(=O)O)C2)CC(c2cc(F)cc(Cl)c2)=NO1 (mixture of isomers) [I-132] | 80 to 100 | 80 to 100 | 60 to 80 | A (A indicates that the inhibition rate was greater than or equal to 80% to 100%) | A (A indicates that the inhibition rate was greater than or equal to 80% to 100%) | A (A indicates that the inhibition rate was greater than or equal to 80% to 100%) | A (A indicates that the inhibition rate was greater than or equal to 80% to 100%) | A (A indicates that the inhibition rate was greater than or equal to 80% to 100%)
COC(=O)[C@H]1C[C@@H](NC(=O)C2(C)CC(c3cc(F)cc(Cl)c3)=NO2)C1 (mixture of isomers) [I-134] | 80 to 100 | 80 to 100 | 60 to 80 | A (A indicates that the inhibition rate was greater than or equal to 80% to 100%) | A (A indicates that the inhibition rate was greater than or equal to 80% to 100%) | A (A indicates that the inhibition rate was greater than or equal to 80% to 100%) | A (A indicates that the inhibition rate was greater than or equal to 80% to 100%) | A (A indicates that the inhibition rate was greater than or equal to 80% to 100%)
CC1(C(=O)N[C@H]2C[C@@H](C(=O)O)C2)CC(c2cc(Cl)cc(Cl)c2)=NO1 (mixture of isomers) [I-137] | 80 to 100 | 80 to 100 | 40 to 60 | A (A indicates that the inhibition rate was greater than or equal to 80% to 100%) | A (A indicates that the inhibition rate was greater than or equal to 80% to 100%) | A (A indicates that the inhibition rate was greater than or equal to 80% to 100%) | A (A indicates that the inhibition rate was greater than or equal to 80% to 100%) | A (A indicates that the inhibition rate was greater than or equal to 80% to 100%)
COC(=O)[C@H]1C[C@@H](NC(=O)C2(C)CC(c3cc(Cl)cc(Cl)c3)=NO2)C1 (mixture of isomers) [I-139] | 80 to 100 | 80 to 100 | 40 to 60 | A (A indicates that the inhibition rate was greater than or equal to 80% to 100%) | A (A indicates that the inhibition rate was greater than or equal to 80% to 100%) | A (A indicates that the inhibition rate was greater than or equal to 80% to 100%) | A (A indicates that the inhibition rate was greater than or equal to 80% to 100%) | A (A indicates that the inhibition rate was greater than or equal to 80% to 100%)
CC1(C(=O)N[C@H]2C[C@@H](C(=O)O)C2)CC(c2cc(F)cc(OC(F)(F)F)c2)=NO1 (mixture of isomers) [I-157] | 60 to 80 | 80 to 100 | 60 to 80 | A (A indicates that the inhibition rate was greater than or equal to 80% to 100%) | A (A indicates that the inhibition rate was greater than or equal to 80% to 100%) | A (A indicates that the inhibition rate was greater than or equal to 80% to 100%) | A (A indicates that the inhibition rate was greater than or equal to 80% to 100%) | A (A indicates that the inhibition rate was greater than or equal to 80% to 100%)
